Laboratory results taken from ChEMBL document CHEMBL3112568, “Synthesis, antifungal activities and molecular docking studies of novel 2-(2,4-difluorophenyl)-2-hydroxy-3-(1H-1,2,4-triazol-1-yl)propyl dithiocarbamates” (2014).
Values after ≈ are worked out from the molar mass of the structure shown.

Legend:
Type in all cases: functional
Nannizzia gypsea = test: Antifungal activity against Microsporum gypseum by micro-broth dilution method
Trichophyton rubrum = test: Antifungal activity against Trichophyton rubrum by micro-broth dilution method
Nakaseomyces glabratus = test: Antifungal activity against Candida glabrata by micro-broth dilution method
Aspergillus fumigatus = test: Antifungal activity against Aspergillus fumigatus by micro-broth dilution method
Candida parapsilosis = test: Antifungal activity against Candida parapsilosis by micro-broth dilution method; conditions: Lodderomyces parapsilosis
Cryptococcus neoformans = test: Antifungal activity against Cryptococcus neoformans after 72 hrs by micro-broth dilution method
Candida albicans [1] = test: Antifungal activity against Candida albicans SC5314 after 24 hrs by micro-broth dilution method; conditions: SC5314, 24 h
Candida albicans [2] = test: Antifungal activity against Candida albicans Y0109 after 24 hrs by micro-broth dilution method; conditions: Y0109, 24 h

| SMILES | MIC80 (Nannizzia gypsea) [µg/mL] | MIC80 (Trichophyton rubrum) [µg/mL] | MIC80 (Nakaseomyces glabratus) [µg/mL] | MIC80 (Aspergillus fumigatus) [µg/mL] | MIC80 (Candida parapsilosis) [µg/mL] | MIC80 (Cryptococcus neoformans) [µg/mL] | MIC80 (Candida albicans [1]) [µg/mL] | MIC80 (Candida albicans [2]) [µg/mL] |
| --- | --- | --- | --- | --- | --- | --- | --- | --- |
| CCN(CC)C(=S)SCC(O)(Cn1cncn1)c1ccc(F)cc1F (racemic) | 4 (≈ 10.3 µM) | 8 (≈ 20.7 µM) | ≤ 0.125 | 8 (≈ 20.7 µM) | 0.5 (≈ 1.29 µM) | 0.25 (≈ 0.647 µM) | ≤ 0.125 | ≤ 0.125 |
| CNC(=S)SCC(O)(Cn1cncn1)c1ccc(F)cc1F (racemic) | > 64 | 4 (≈ 11.6 µM) | 2 (≈ 5.81 µM) | > 64 | > 64 | 64 (≈ 186 µM) | 1 (≈ 2.9 µM) | 1 (≈ 2.9 µM) |
| CCNC(=S)SCC(O)(Cn1cncn1)c1ccc(F)cc1F (racemic) | > 64 | 4 (≈ 11.2 µM) | 4 (≈ 11.2 µM) | > 64 | > 64 | 64 (≈ 179 µM) | 1 (≈ 2.79 µM) | 1 (≈ 2.79 µM) |
| CCCNC(=S)SCC(O)(Cn1cncn1)c1ccc(F)cc1F (racemic) | > 64 | 32 (≈ 85.9 µM) | 2 (≈ 5.37 µM) | > 64 | > 64 | 64 (≈ 172 µM) | 0.25 (≈ 0.671 µM) | 0.25 (≈ 0.671 µM) |
| CC(C)NC(=S)SCC(O)(Cn1cncn1)c1ccc(F)cc1F (racemic) | > 64 | 64 (≈ 172 µM) | 4 (≈ 10.7 µM) | > 64 | 1 (≈ 2.68 µM) | 64 (≈ 172 µM) | 2 (≈ 5.37 µM) | 1 (≈ 2.68 µM) |
| CCCCNC(=S)SCC(O)(Cn1cncn1)c1ccc(F)cc1F (racemic) | > 64 | > 64 | 16 (≈ 41.4 µM) | > 64 | 0.25 (≈ 0.647 µM) | 64 (≈ 166 µM) | 0.5 (≈ 1.29 µM) | 0.5 (≈ 1.29 µM) |
| C=CCNC(=S)SCC(O)(Cn1cncn1)c1ccc(F)cc1F (racemic) | 64 (≈ 173 µM) | 64 (≈ 173 µM) | 4 (≈ 10.8 µM) | > 64 | 2 (≈ 5.4 µM) | 64 (≈ 173 µM) | 0.5 (≈ 1.35 µM) | 0.5 (≈ 1.35 µM) |
| OC(CSC(=S)NC1CC1)(Cn1cncn1)c1ccc(F)cc1F (racemic) | > 64 | 64 (≈ 173 µM) | 8 (≈ 21.6 µM) | > 64 | 1 (≈ 2.7 µM) | 64 (≈ 173 µM) | 1 (≈ 2.7 µM) | 1 (≈ 2.7 µM) |
| OC(CSC(=S)NC1CCCCC1)(Cn1cncn1)c1ccc(F)cc1F (racemic) | > 64 | 64 (≈ 155 µM) | 4 (≈ 9.7 µM) | > 64 | 64 (≈ 155 µM) | 16 (≈ 38.8 µM) | 0.25 (≈ 0.606 µM) | 0.25 (≈ 0.606 µM) |
| OC(CSC(=S)NCc1ccccc1)(Cn1cncn1)c1ccc(F)cc1F (racemic) | 32 (≈ 76.1 µM) | 0.5 (≈ 1.19 µM) | 8 (≈ 19 µM) | > 64 | 8 (≈ 19 µM) | 16 (≈ 38 µM) | 0.5 (≈ 1.19 µM) | 1 (≈ 2.38 µM) |
| CN(C)C(=S)SCC(O)(Cn1cncn1)c1ccc(F)cc1F (racemic) | 2 (≈ 5.58 µM) | 0.5 (≈ 1.39 µM) | ≤ 0.125 | 8 (≈ 22.3 µM) | 0.5 (≈ 1.39 µM) | 0.5 (≈ 1.39 µM) | ≤ 0.125 | ≤ 0.125 |
| CN(C(=S)SCC(O)(Cn1cncn1)c1ccc(F)cc1F)c1ccccc1 (racemic) | 2 (≈ 4.76 µM) | 2 (≈ 4.76 µM) | 0.5 (≈ 1.19 µM) | 64 (≈ 152 µM) | 32 (≈ 76.1 µM) | 1 (≈ 2.38 µM) | 0.5 (≈ 1.19 µM) | 0.25 (≈ 0.595 µM) |
| CN(Cc1ccccc1)C(=S)SCC(O)(Cn1cncn1)c1ccc(F)cc1F (racemic) | > 64 | > 64 | 0.25 (≈ 0.575 µM) | 16 (≈ 36.8 µM) | 0.5 (≈ 1.15 µM) | 1 (≈ 2.3 µM) | 0.25 (≈ 0.575 µM) | 0.25 (≈ 0.575 µM) |
| CN(CCO)C(=S)SCC(O)(Cn1cncn1)c1ccc(F)cc1F (racemic) | 16 (≈ 41.2 µM) | 4 (≈ 10.3 µM) | ≤ 0.125 | > 64 | ≤ 0.125 | 8 (≈ 20.6 µM) | ≤ 0.125 | ≤ 0.125 |
| OCCN(Cc1ccccc1)C(=S)SCC(O)(Cn1cncn1)c1ccc(F)cc1F (racemic) | 32 (≈ 68.9 µM) | 2 (≈ 4.31 µM) | ≤ 0.125 | > 64 | 0.25 (≈ 0.538 µM) | 2 (≈ 4.31 µM) | 0.25 (≈ 0.538 µM) | 0.25 (≈ 0.538 µM) |
| OCCN(CCO)C(=S)SCC(O)(Cn1cncn1)c1ccc(F)cc1F (racemic) | 1 (≈ 2.39 µM) | 1 (≈ 2.39 µM) | 0.25 (≈ 0.597 µM) | > 64 | > 64 | 64 (≈ 153 µM) | 8 (≈ 19.1 µM) | 8 (≈ 19.1 µM) |
| OC(CSC(=S)N1CCCCC1)(Cn1cncn1)c1ccc(F)cc1F (racemic) | 8 (≈ 20.1 µM) | 8 (≈ 20.1 µM) | ≤ 0.125 | 16 (≈ 40.2 µM) | 0.5 (≈ 1.25 µM) | ≤ 0.125 | ≤ 0.125 | ≤ 0.125 |

| SMILES | MIC80 (Nannizzia gypsea) [µg/mL] | MIC80 (Trichophyton rubrum) [µg/mL] | MIC80 (Nakaseomyces glabratus) [µg/mL] | MIC80 (Aspergillus fumigatus) [µg/mL] | MIC80 (Candida parapsilosis) [µg/mL] | MIC80 (Cryptococcus neoformans) [µg/mL] | MIC80 (Candida albicans [1]) [µg/mL] | MIC80 (Candida albicans [2]) [µg/mL] |
| --- | --- | --- | --- | --- | --- | --- | --- | --- |
| OC(CSC(=S)N1CCOCC1)(Cn1cncn1)c1ccc(F)cc1F (racemic) | 8 (≈ 20 µM) | 8 (≈ 20 µM) | ≤ 0.125 | 16 (≈ 40 µM) | 0.25 (≈ 0.624 µM) | 0.25 (≈ 0.624 µM) | ≤ 0.125 | ≤ 0.125 |
| CN1CCN(C(=S)SCC(O)(Cn2cncn2)c2ccc(F)cc2F)CC1 (racemic) | 4 (≈ 9.67 µM) | 1 (≈ 2.42 µM) | ≤ 0.125 | 8 (≈ 19.3 µM) | 0.25 (≈ 0.605 µM) | 0.25 (≈ 0.605 µM) | ≤ 0.125 | ≤ 0.125 |
| O=C1CCN(C(=S)SCC(O)(Cn2cncn2)c2ccc(F)cc2F)CC1 (racemic) | 32 (≈ 77.6 µM) | 2 (≈ 4.85 µM) | ≤ 0.125 | 8 (≈ 19.4 µM) | 1 (≈ 2.42 µM) | 2 (≈ 4.85 µM) | ≤ 0.125 | ≤ 0.125 |
| OC(CSC(=S)N1CCN(c2ccccc2)CC1)(Cn1cncn1)c1ccc(F)cc1F (racemic) | 2 (≈ 4.21 µM) | 2 (≈ 4.21 µM) | ≤ 0.125 | 4 (≈ 8.41 µM) | 0.25 (≈ 0.526 µM) | ≤ 0.125 | 0.25 (≈ 0.526 µM) | 0.25 (≈ 0.526 µM) |
| OC(CSC(=S)N1CCN(Cc2ccccc2)CC1)(Cn1cncn1)c1ccc(F)cc1F (racemic) | 2 (≈ 4.08 µM) | 2 (≈ 4.08 µM) | 0.25 (≈ 0.511 µM) | 4 (≈ 8.17 µM) | 1 (≈ 2.04 µM) | 0.25 (≈ 0.511 µM) | ≤ 0.125 | ≤ 0.125 |
| OC(CSC(=S)N1CCN(c2ccccc2F)CC1)(Cn1cncn1)c1ccc(F)cc1F (racemic) | > 64 | 1 (≈ 2.03 µM) | 0.5 (≈ 1.01 µM) | > 64 | 2 (≈ 4.05 µM) | 0.5 (≈ 1.01 µM) | 0.5 (≈ 1.01 µM) | 0.5 (≈ 1.01 µM) |
| OC(CSC(=S)N1CCN(c2cccc(F)c2)CC1)(Cn1cncn1)c1ccc(F)cc1F (racemic) | 4 (≈ 8.1 µM) | 0.5 (≈ 1.01 µM) | 0.25 (≈ 0.507 µM) | 8 (≈ 16.2 µM) | 0.5 (≈ 1.01 µM) | ≤ 0.125 | ≤ 0.125 | ≤ 0.125 |
| OC(CSC(=S)N1CCN(c2ccc(F)cc2)CC1)(Cn1cncn1)c1ccc(F)cc1F (racemic) | 2 (≈ 4.05 µM) | 1 (≈ 2.03 µM) | 0.25 (≈ 0.507 µM) | 16 (≈ 32.4 µM) | 0.25 (≈ 0.507 µM) | ≤ 0.125 | 0.25 (≈ 0.507 µM) | ≤ 0.125 |
| OC(CSC(=S)N1CCN(c2ccccc2Cl)CC1)(Cn1cncn1)c1ccc(F)cc1F (racemic) | 2 (≈ 3.92 µM) | 1 (≈ 1.96 µM) | 0.5 (≈ 0.98 µM) | 8 (≈ 15.7 µM) | 0.5 (≈ 0.98 µM) | ≤ 0.125 | ≤ 0.125 | ≤ 0.125 |
| OC(CSC(=S)N1CCN(c2ccc(Cl)cc2)CC1)(Cn1cncn1)c1ccc(F)cc1F (racemic) | 4 (≈ 7.84 µM) | 1 (≈ 1.96 µM) | 0.25 (≈ 0.49 µM) | 16 (≈ 31.4 µM) | 0.5 (≈ 0.98 µM) | ≤ 0.125 | ≤ 0.125 | ≤ 0.125 |
| Cc1ccccc1N1CCN(C(=S)SCC(O)(Cn2cncn2)c2ccc(F)cc2F)CC1 (racemic) | 16 (≈ 32.7 µM) | 2 (≈ 4.08 µM) | 0.5 (≈ 1.02 µM) | > 64 | 1 (≈ 2.04 µM) | 0.5 (≈ 1.02 µM) | 0.25 (≈ 0.511 µM) | ≤ 0.125 |
| Cc1cccc(N2CCN(C(=S)SCC(O)(Cn3cncn3)c3ccc(F)cc3F)CC2)c1C (racemic) | > 64 | 1 (≈ 1.99 µM) | 0.5 (≈ 0.993 µM) | > 64 | 1 (≈ 1.99 µM) | 0.5 (≈ 0.993 µM) | 0.5 (≈ 0.993 µM) | 0.5 (≈ 0.993 µM) |
| OC(CSC(=S)N1CCN(c2cccc(Cl)c2Cl)CC1)(Cn1cncn1)c1ccc(F)cc1F (racemic) | 16 (≈ 29.4 µM) | 0.5 (≈ 0.918 µM) | 0.5 (≈ 0.918 µM) | > 64 | 1 (≈ 1.84 µM) | 0.5 (≈ 0.918 µM) | 0.5 (≈ 0.918 µM) | ≤ 0.125 |
| COc1cccc(N2CCN(C(=S)SCC(O)(Cn3cncn3)c3ccc(F)cc3F)CC2)c1 (racemic) | 4 (≈ 7.91 µM) | 1 (≈ 1.98 µM) | 0.25 (≈ 0.494 µM) | 16 (≈ 31.6 µM) | 0.5 (≈ 0.989 µM) | 0.25 (≈ 0.494 µM) | ≤ 0.125 | ≤ 0.125 |
| COc1ccc(N2CCN(C(=S)SCC(O)(Cn3cncn3)c3ccc(F)cc3F)CC2)cc1 (racemic) | 2 (≈ 3.96 µM) | 1 (≈ 1.98 µM) | ≤ 0.125 | 8 (≈ 15.8 µM) | 0.25 (≈ 0.494 µM) | 0.25 (≈ 0.494 µM) | ≤ 0.125 | ≤ 0.125 |
| OC(CSC(=S)N1CCN(c2cccc(C(F)(F)F)c2)CC1)(Cn1cncn1)c1ccc(F)cc1F (racemic) | 2 (≈ 3.68 µM) | 1 (≈ 1.84 µM) | 0.25 (≈ 0.46 µM) | 8 (≈ 14.7 µM) | 0.5 (≈ 0.92 µM) | 0.25 (≈ 0.46 µM) | ≤ 0.125 | ≤ 0.125 |
| OC(Cn1cncn1)(Cn1cncn1)c1ccc(F)cc1F [FLUCONAZOLE] | 32 (≈ 104 µM) | 4 (≈ 13.1 µM) | 2 (≈ 6.53 µM) | > 64 | 2 (≈ 6.53 µM) | 1 (≈ 3.27 µM) | 0.25 (≈ 0.816 µM) | 0.25 (≈ 0.816 µM) |
